The numbers were not newly measured in EP3473244A1, “CONTROLLED RELEASE ORAL TAMSULOSIN HYDROCHLORIDE” (Veru Inc., priority 2017, dated 2019), which cites them from elsewhere.

The conditions of this data set: reported value used to set PK sampling times.

Regarding `CCOc1ccccc1OCCN[C@H](C)Cc1ccc(OC)c(S(N)(=O)=O)c1` [Tamsulosin], the “T ½” value is 5 h.
